Assay results taken from patent publication US10329289B2, “6,7-dihydro-5H-pyrrolo[3,4-B]pyridin-5-one allosteric modulators of the M4 muscarinic acetylcholine receptor” (Merck Sharp & Dohme Corp., priority 2015, dated 2019).

These compounds were tested against T1, human M4 muscarinic acetylcholine receptor (Homo sapiens, UniProt P08173) (assay: human FLIPR-based M4 PAM assay (Ca2+ mobilization, CHO-K1 cells with human M4 receptor and Gαqi5)). Conditions: acetylcholine at 20% of maximum response, read-out: M4 PAM IP.
T1 construct: expressed in transfected cells; host or cells: CHO-K1
T1 sequence (P08173 1-479): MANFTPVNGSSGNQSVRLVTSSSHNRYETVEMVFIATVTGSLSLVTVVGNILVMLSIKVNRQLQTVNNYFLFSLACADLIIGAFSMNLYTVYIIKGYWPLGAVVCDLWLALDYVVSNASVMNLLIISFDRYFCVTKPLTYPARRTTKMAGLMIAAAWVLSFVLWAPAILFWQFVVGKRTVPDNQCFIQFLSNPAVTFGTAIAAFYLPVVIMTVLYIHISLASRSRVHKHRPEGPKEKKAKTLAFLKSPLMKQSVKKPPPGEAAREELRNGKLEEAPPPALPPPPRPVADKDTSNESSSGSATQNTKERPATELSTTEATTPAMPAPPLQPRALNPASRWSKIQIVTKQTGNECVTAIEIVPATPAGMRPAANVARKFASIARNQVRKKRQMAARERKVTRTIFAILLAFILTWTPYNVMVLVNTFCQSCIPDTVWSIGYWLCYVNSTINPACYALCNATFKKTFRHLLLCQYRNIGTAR
Format: cell-based
Outline: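 Calcium-mobilization (FLIPR) readout in dye-loaded CHO-K1 cells co-expressing human M4 receptor and Gαqi5. Potentiation measured against acetylcholine at a concentration giving 20% of maximal response, with an optional 70% addition; the reported value is the curve inflection point from a 4-parameter logistic fit.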

Row | Compound | EC50
1 | COc1ccc(OC2CCN(c3nc4c(cc3C)C(=O)N(C(=O)OC(C)(C)C)C4)CC2)cn1 [Example 299, tert-Butyl 2-(4-((6-methoxypyridin-3-yl)oxy)piperidin-1-yl)-3-methyl-5-oxo-5,7-dihydro-6H-pyrrolo[3,4-b]pyridine-6-carboxylate] | 265 nM
2 | COc1ccc(OC2CCN(c3nc4c(cc3C)C(=O)NC43CC3)CC2)cn1 [Example 300] | 286 nM
3 | COc1ccc(OC2CCN(c3nc4c(cc3CO)C(=O)NC4)CC2)cn1 [Example 301, 3-(Hydroxymethyl)-2-(4-((6-methoxypyridin-3-yl)oxy)piperidin-1-yl)-6,7-dihydro-5H-pyrrolo[3,4-b]pyridin-5-one] | 1140 nM
4 | COc1ccc(OC2CCN(c3nc4c(cc3CF)C(=O)NC4)CC2)cn1 [Example 304, 3-(Fluoromethyl)-2-(4-((6-methoxypyridin-3-yl)oxy)piperidin-1-yl)-6,7-dihydro-5H-pyrrolo[3,4-b]pyridin-5-one] | 1120 nM
5 | COc1ccc(OC2CCN(c3nc4c(cc3C=O)C(=O)NC4)CC2)cn1 [Example 306, 2-(4-((6-Methoxypyridin-3-yl)oxy)piperidin-1-yl)-5-oxo-6,7-dihydro-5H-pyrrolo[3,4-b]pyridine-3-carbaldehyde] | 320 nM
6 | COc1ccc(OC2CCN(c3nc4c(c(C(F)F)c3C)C(=O)NC4)CC2)cn1 [Example 307A, 4-(difluoromethyl)-2-(4-((6-methoxypyridin-3-yl)oxy)piperidin-1-yl)-3-methyl-6,7-dihydro-5H-pyrrolo[3,4-b]pyridin-5-one] | 279 nM
7 | Cc1cc2c(nc1N1CCC(Oc3cccc(C=O)c3)CC1)CNC2=O [Example 308, 3-((1-(3-Methyl-5-oxo-6,7-dihydro-5H-pyrrolo[3,4-b]pyridin-2-yl)piperidin-4-yl)oxy)benzaldehyde] | 176 nM
8 | Cc1cc2c(nc1N1CCC(Oc3cccc(CO)c3)CC1)CNC2=O [Example 309, 2-(4-(3-(Hydroxymethyl)phenoxy)piperidin-1-yl)-3-methyl-6,7-dihydro-5H-pyrrolo[3,4-b]pyridin-5-one] | 47 nM
9 | COc1ccc(OC2CCN(c3nc4c(cc3C)C(=O)N(CC(N)=O)C4)CC2)cn1 [Example 310, 2-(2-(4-((6-methoxypyridin-3-yl)oxy)piperidin-1-yl)-3-methyl-5-oxo-5,7-dihydro-6H-pyrrolo[3,4-b]pyridin-6-yl)acetamide] | 101 nM
10 | Cc1cc2c(nc1N1CCC(Oc3cnn(C4CC4)c3)CC1)CNC2=O [Example 311A, 2-(4-((1-cyclopropyl-1H-pyrazol-4-yl)oxy)piperidin-1-yl)-3-methyl-6,7-dihydro-5H-pyrrolo[3,4-b]pyridin-5-one] | 108 nM
11 | COCCn1cc(OC2CCN(c3nc4c(cc3C)C(=O)NC4)CC2)cn1 [Example 312A, 2-(4-((1-(2-methoxyethyl)-1H-pyrazol-4-yl)oxy)piperidin-1-yl)-3-methyl-6,7-dihydro-5H-pyrrolo[3,4-b]pyridin-5-one] | 2510 nM
12 | Cc1cc2c(nc1N1CCC(OCC3(O)CC3)CC1)CNC2=O [Example 312B, 2-(4-((1-hydroxycyclopropyl)methoxy)piperidin-1-yl)-3-methyl-6,7-dihydro-5H-pyrrolo[3,4-b]pyridin-5-one] | 1120 nM
13 | Cc1cc2c(nc1N1CCC(Oc3ccc4[nH]nc(Cl)c4c3)CC1)CNC2=O [Example 313, 2-(4-((3-Chloro-1H-indazol-5-yl)ox)piperidin-1-yl)-3-methyl-6,7-dihydro-5H-pyrrolo[3,4-b]pyridin-5-one] | 30 nM
14 | Cc1cc2c(nc1N1CCC(Oc3ccc4[nH]ncc4c3Cl)CC1)CNC2=O [Example 314, 2-(4-((4-Chloro-1H-indazol-5-yl)ox)piperidin-1-yl)-3-methyl-6,7-dihydro-5H-pyrrolo[3,4-b]pyridin-5-one] | 676 nM
15 | Cc1cc2c(nc1N1CCC(Oc3ccc4[nH]nc(Br)c4c3)CC1)CNC2=O [Example 315, 2-(4-((3-bromo-1H-indazol-5-yl)oxy)piperidin-1-yl)-3-methyl-6,7-dihydro-5H-pyrrolo[3,4-b]pyridin-5-one] | 80 nM
16 | Cc1cc2c(nc1N1CCC(Oc3ccc4[nH]nc(C#N)c4c3)CC1)CNC2=O [Example 316, 5-((1-(3-Methyl-5-oxo-6,7-dihydro-5H-pyrrolo[3,4-b]pyridin-2-yl)piperidin-4-yl)oxy)-1H-indazole-3-carbonitrile] | 198 nM
17 | Cc1cc2c(nc1N1CCC(Oc3cc(F)c4[nH]ncc4c3)CC1)CNC2=O [Example 317, 2-(4-((7-Fluoro-1H-indazol-5-yl)ox)piperidin-1-yl)-3-methyl-6,7-dihydro-5H-pyrrolo[3,4-b]pyridin-5-one] | 125 nM
18 | COc1ccc(OC2CCN(c3nc4c(cc3C)C(=O)N(C[C@H](O)C(F)(F)F)C4)CC2)cn1 [Example 319, (S)-2-(4-((6-methoxypyridin-3-yl)oxy)piperidin-1-yl)-3-methyl-6-(3,3,3-trifluoro-2-hydroxypropyl)-6,7-dihydro-5H-pyrrolo[3,4-b] pyridin-5-one] | 96 nM
19 | Cc1cc2c(nc1N1CCC(Oc3ccc4c(c3)CC(C)(C)O4)CC1)CNC2=O [Example 321, 2-(4-((2,2-Dimethyl-2,3-dihydrobenzofuran-5-yl)oxy)piperidin-1-yl)-3-methyl-6,7-dihydro-5H-pyrrolo[3,4-b]pyridin-5-one] | 193 nM
20 | Cc1cc2c(nc1N1CCC(Oc3cnn(CC4CC4)c3)CC1)CNC2=O [Example 321A, 2-(4-((1-(cyclopropylmethyl)-1H-pyrazol-4-yl)oxy)piperidin-1-yl)-3-methyl-6,7-dihydro-5H-pyrrolo[3,4-b]pyridin-5-one] | 434 nM
21 | COc1ccc(OC2CCN(c3nc4c(cc3C)C(=O)N(C)[C@H]4C(C)(C)O)CC2)cn1 [Example 323A, (R)-7-(2-Hydroxypropan-2-yl)-2-(4-((6-methoxpyridin-3-yl)oxy)piperidin-1-yl)-3,6-dimethyl-6,7-dihydro-5H-pyrrolo[3,4-b]pyridin-5-one] | 261 nM

Further compounds by falling EC50, results first:

Row | EC50 | Compound
22 | 1310 nM | COc1ccc(OC2CCN(c3nc4c(cc3C(F)F)C(=O)NC4)CC2)cn1 [Example 307, 3-(Difluoromethyl)-2-(4-((6-methoxypyridin-3-yl)oxy)piperidin-1-yl)-6,7-dihydro-5H-pyrrolo[3,4-b]pyridin-5-one]
23 | 819 nM | COc1ccc(OC2CCN(c3nc4c(c(CO)c3C)C(=O)NC4)CC2)cn1 [Example 302, 4-(hydroxymethyl)-2-(4-((6-methoxypyridin-3-yl)oxy)piperidin-1-yl)-3-methyl-6,7-dihydro-5H-pyrrolo[3,4-b]pyridin-5-one]
24 | 686 nM | Cc1cc2c(nc1N1CCC(OCC3CC3(C)C)CC1)CNC2=O (centres unmarked) [Example 311, 2-(4-((2,2-Dimethylcyclopropyl)methoxy)piperidin-1-yl)-3-methyl-6,7-dihydro-5H-pyrrolo[3,4-b]pyridin-5-one]
25 | 651 nM | Cc1cc2c(nc1N1CCC(OCC3(CO)CC3)CC1)CNC2=O [Example 312, 2-(4-((1-(hydroxymethyl)cyclopropyl)methoxy)piperidin-1-yl)-3-methyl-6,7-dihydro-5H-pyrrolo[3,4-b]pyridin-5-one]
26 | 499 nM | COc1ccc(OC2CCN(c3nc4c(cc3C)C(=O)N(C)C4C(C)(C)O)CC2)cn1 (centres unmarked) [Example 322, 7-(2-Hydroxypropan-2-yl)-2-(4-((6-methoxypyridin-3-yl)oxy)piperidin-1-yl)-3,6-dimethyl-6,7-dihydro-5H-pyrrolo[3,4-b]pyridin-5-one]
27 | 302 nM | Cc1c(N2CCC(Oc3ccc4c(c3)COC4)CC2)nc2c(c1CO)C(=O)NC2 [Example 303, 2-(4-((1,3-dihydro-2-benzofuran-5-yl)oxy)piperidin-1-yl)-4-(hydroxymethyl)-3-methyl-6,7-dihydro-5H-pyrrolo[3,4-b]pyridin-5-one]
28 | 241 nM | COc1ccc(OC2CCN(c3nc4c(c(CF)c3C)C(=O)NC4)CC2)cn1 [Example 305, 4-(fluoromethyl)-2-(4-((6-methoxypyridin-3-yl)oxy)piperidin-1-yl)-3-methyl-6,7-dihydro-5H-pyrrolo[3,4-b]pyridin-5-one]
29 | 155 nM | COc1ccc(OC2CCN(c3nc4c(cc3C)C(=O)N(C[C@@H](O)C(F)(F)F)C4)CC2)cn1 [Example 318, (R)-2-(4-((6-Methoxypyridin-3-yl)oxy)piperidin-1-yl)-3-methyl-6-(3,3,3-trifluoro-2-hydroxypropyl)-6,7-dihydro-5H-pyrrolo[3,4-b]pyridin-5-one]
30 | 150 nM | CNc1ccc(OC2CCN(c3nc4c(cc3C)C(=O)NC4)CC2)cn1 [Example 320, 3-Methyl-2-(4-((6-(methylamino)pyridin-3-yl)oxy)piperidin-1-yl)-6,7-dihydro-5H-pyrrolo[3,4-b]pyridin-5-one]
31 | 91 nM | Cc1cc2c(nc1N1CCC(Oc3ccc4c(c3)CCOCC4)CC1)CNC2=O [Example 321B, 3-methyl-2-(4-((1,2,4,5-tetrahydrobenzo[d]oxepin-7-yl)oxy)piperidin-1-yl)-6,7-dihydro-5H-pyrrolo[3,4-b]pyridin-5-one]
32 | 35 nM | Cc1c(N2CCC(Oc3ccc4c(c3)COC4)CC2)nc2c(c1C)C(=O)N(CC(N)=O)C2 [Example 310A, 2-(2-(4-((1,3-dihydro-2-benzofuran-5-yl)oxy)piperidin-1-yl)-3,4-dimethyl-5-oxo-5,7-dihydro-6H-pyrrolo[3,4-b]pyridin-6-yl)acetamide]
